# Test results published in patent US20260234136A1, “ISOXAZOLIDINES AS RIPK1 INHIBITORS AND USE THEREOF” (GENZYME CORPORATION, priority 2023, published 2026).
# Assays:
# physchem = settings: 50 mM phosphate buffer, 25 °C, pH 7.4, aqueous buffer, thermodynamic from solid
# U937 cells = assay: Cellular assay in U937 cells to measure the activity of RIPK1-inhibitors on cell death (necroptosis); assay type: cell-based; settings: Homo sapiens, U-937, 50 μM zVAD.fmk and 100 ng/ml recombinant human TNFα, overnight (18 to 24 hrs), MTS readout
solubility at 16 h (physchem) [µM],SMILES,IC50 (U937 cells) [nM]
> 1140,"O=C1CCCN1c1nccc(N2CCC(C(=O)N3OCC[C@H]3c3cncc(F)c3)CC2)n1 [Example 71, 1-[4-[4-[(3S)-3-(5-fluoropyridin-3-yl)-1,2-oxazolidine-2-carbonyl]piperidin-1-yl]pyrimidin-2-yl]pyrrolidin-2-one]",2340
98.4,"O=C(C1CCN(c2nccc(N3CCC(F)(F)C3=O)n2)CC1)N1OCC[C@H]1c1cncc(F)c1 [Example 75, 3,3-difluoro-1-[2-[4-[(3S)-3-(5-fluoropyridin-3-yl)-1,2-oxazolidine-2-carbonyl]piperidin-1-yl]pyrimidin-4-yl]pyrrolidin-2-one]",58
> 1150,"Cc1ccc([C@@H]2CCON2C(=O)C2CCN(c3nccc(N4CCCC4=O)n3)CC2)cn1 [Example 81, 1-[2-[4-[(3S)-3-(6-methylpyridin-3-yl)-1,2-oxazolidine-2-carbonyl]piperidin-1-yl]pyrimidin-4-yl]pyrrolidin-2-one]",52
> 1130,"O=C1OCCN1c1ccnc(N2CCC(C(=O)N3OCC[C@H]3c3cncc(F)c3)CC2)n1 [Example 91, 3-[2-[4-[(3S)-3-(5-fluoropyridin-3-yl)-1,2-oxazolidine-2-carbonyl]piperidin-1-yl]pyrimidin-4-yl]-1,3-oxazolidin-2-one]",7
> 1040,"CO[C@H]1CCCN(c2ccnc(N3CCC(C(=O)N4OCC[C@H]4c4ccc(C)nc4)CC3)n2)C1=O [Example 94, (3S)-3-methoxy-1-[2-[4-[(3S)-3-(6-methylpyridin-3-yl)-1,2-oxazolidine-2-carbonyl]piperidin-1-yl]pyrimidin-4-yl]piperidin-2-one]",216

# Continued, molecule first:
SMILES,solubility at 16 h (physchem) [µM],IC50 (U937 cells) [nM]
"Cc1ccc([C@@H]2CCON2C(=O)[C@@H]2CCN(c3ncnc(-c4ccnn4C)n3)CC23CC3)cn1 [Example 69, [(8R)-5-[4-(2-methylpyrazol-3-yl)-1,3,5-triazin-2-yl]-5-azaspiro[2.5]octan-8-yl]-[(3S)-3-(6-methylpyridin-3-yl)-1,2-oxazolidin-2-yl]methanone]",601,9
"Cc1ccc([C@@H]2CCON2C(=O)C2CCN(c3ncc(F)c(-n4ccnc4C)n3)CC2)cn1 [Example 77, [1-[5-fluoro-4-(2-methylimidazol-1-yl)pyrimidin-2-yl]piperidin-4-yl]-[(3S)-3-(6-methylpyridin-3-yl)-1,2-oxazolidin-2-yl]methanone]",> 1110,1
"Cc1ccc([C@@H]2CCON2C(=O)C2CCN(c3cc(N4CCCC4=O)ncn3)CC2)cn1 [Example 82, 1-[6-[4-[(3S)-3-(6-methylpyridin-3-yl)-1,2-oxazolidine-2-carbonyl]piperidin-1-yl]pyrimidin-4-yl]pyrrolidin-2-one]",> 1150,10000
"Cc1ccc([C@@H]2CCON2C(=O)C2CCN(c3ccnc(N4CCC(C)(C)C4=O)n3)CC2)cn1 [Example 84, 3,3-dimethyl-1-[4-[4-[(3S)-3-(6-methylpyridin-3-yl)-1,2-oxazolidine-2-carbonyl]piperidin-1-yl]pyrimidin-2-yl]pyrrolidin-2-one]",> 1080,8130
"Cc1ccc([C@@H]2CCON2C(=O)C2CCN(c3nccc(N4C(=O)CCC4(C)C)n3)CC2)cn1 [Example 88, 5,5-dimethyl-1-[2-[4-[(3S)-3-(6-methylpyridin-3-yl)-1,2-oxazolidine-2-carbonyl]piperidin-1-yl]pyrimidin-4-yl]pyrrolidin-2-one]",> 1080,1360
"CO[C@@H]1CCCN(c2ccnc(N3CCC(C(=O)N4OCC[C@H]4c4ccc(C)nc4)CC3)n2)C1=O [Example 93, (3R)-3-methoxy-1-[2-[4-[(3S)-3-(6-methylpyridin-3-yl)-1,2-oxazolidine-2-carbonyl]piperidin-1-yl]pyrimidin-4-yl]piperidin-2-one]",> 1040,436
